SMILES strings stand for the structures. Bounds are passed on as bounds.

As usually defined, the IC50 is the midpoint of a concentration-inhibition curve.

One test addresses T1, Human HDAC2 (Homo sapiens, UniProt Q92769).
T1 construct: full length with C-terminal GST-tag; GST (C); host or cells: baculovirus expression system
Nature of the test: HDAC2 biochemical assay, AMC-labeled peptide substrate. The following applies: read-out: HDAC Isoform IC50 (nM) 2. The method, then:
(§1) Activity against all zinc-dependent HDACs 1 to 11 was assessed by using an acetylated AMC-labeled peptide substrate. The substrate RHKK(Ac)AMC was used for HDAC1, HDAC2, HDAC3, HDAC6 and HDAC10; the substrate used for HDAC8 was RHK(Ac)K(Ac)AMC. Activity against the class IIa HDACs (HDAC4, 5, 7, 9) and HDAC11 was determined using a class IIa-specific substrate, BOC-Lys(trifluoroacetyl)-AMC (“Trifluoroacetyl Lysine”; see Lahm et al, 2007, PNAS, 104, 17335-17340). All assays were based on the AMC-labeled substrate and developer combination.
(§2) The protocol involved a two-step reaction: first, the substrate with the acetylated lysine side chain is incubated with a sample containing HDAC activity, to produce the deacetylated products, which are then digested in the second step by the addition of developer to produce the fluorescent signal proportional to the amount of deacetylated substrates.
Human HDAC2 (GenBank Accession No. NM_001527), full length with C-terminal GST-tag, MW=82.9 kDa, expressed inbaculovirus expression system.
(§3) Assay Buffer: 50 mM Tris-HCl, pH8.0, 137 mM NaCl, 2.7 mM KCl, 1 mM MgC2. Before use, 1 mg/mL BSA and DMSO are added.
HDAC2: 0.07 ng/ul HDAC2 and 50 μM HDAC substrate are in the reaction buffer with 1% DMSO final. Incubate for 1 hour at 30° C.
(§4) Stage 1: Deacetylation of substrate by incubation of HDAC enzymes with compounds
(§5) Stage 2: Development by addition of Developer to digest the deacetylated substrate, and generate the fluorescent colour; Detection: 360/460 Ex/Em

For a further test, the target named is T2, Human HDAC10 (Homo sapiens, UniProt Q969S8).
T2 construct: Human HDAC10 (a.a. 1-481); GST (N); His (C); host or cells: baculovirus expression system
T2 sequence (Q969S8 1-481): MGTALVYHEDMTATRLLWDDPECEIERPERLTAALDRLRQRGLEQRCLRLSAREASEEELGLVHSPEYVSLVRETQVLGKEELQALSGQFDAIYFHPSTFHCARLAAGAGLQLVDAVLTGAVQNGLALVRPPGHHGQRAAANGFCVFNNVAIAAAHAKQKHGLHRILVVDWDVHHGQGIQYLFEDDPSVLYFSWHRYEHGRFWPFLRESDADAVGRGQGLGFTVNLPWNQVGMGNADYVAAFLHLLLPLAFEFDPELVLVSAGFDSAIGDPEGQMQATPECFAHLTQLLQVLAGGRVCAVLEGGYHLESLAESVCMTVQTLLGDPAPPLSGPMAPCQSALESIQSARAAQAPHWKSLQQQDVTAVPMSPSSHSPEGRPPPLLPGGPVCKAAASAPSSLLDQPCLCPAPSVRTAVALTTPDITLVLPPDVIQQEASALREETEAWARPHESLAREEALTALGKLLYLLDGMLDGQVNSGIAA
Nature of the test: HDAC10 biochemical assay, AMC-labeled peptide substrate. The following applies: read-out: HDAC Isoform IC50 (nM) 10. The method, then:
as §1, §2
Human HDAC10 (a.a. 1-481), GenBank Accession No. NM_032019 with N-terminal GST tag and C-terminal His tag, MW=78 kDa, expressed in baculovirus expression system.
as §3
HDAC10: 12 ng/ul HDAC10 and 50 μM HDAC substrate are in the reaction buffer with 1% DMSO final. Incubate for 2 hours at 30° C.
as §4, §5

T1 sequence (Q92769 whole entry): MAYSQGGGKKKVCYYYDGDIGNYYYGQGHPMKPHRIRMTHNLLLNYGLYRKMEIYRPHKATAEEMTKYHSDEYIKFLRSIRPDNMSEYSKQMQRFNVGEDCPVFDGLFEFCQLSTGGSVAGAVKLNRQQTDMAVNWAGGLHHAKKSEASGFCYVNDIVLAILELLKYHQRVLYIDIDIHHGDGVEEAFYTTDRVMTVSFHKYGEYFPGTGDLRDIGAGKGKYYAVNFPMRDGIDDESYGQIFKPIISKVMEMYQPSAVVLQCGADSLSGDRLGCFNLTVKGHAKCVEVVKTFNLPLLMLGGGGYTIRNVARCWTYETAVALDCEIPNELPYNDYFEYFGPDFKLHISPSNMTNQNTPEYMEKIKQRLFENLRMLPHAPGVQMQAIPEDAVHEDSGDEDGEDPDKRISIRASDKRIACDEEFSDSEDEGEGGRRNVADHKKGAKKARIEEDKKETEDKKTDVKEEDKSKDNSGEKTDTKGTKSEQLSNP

Consider `Fc1ccnc(N(Cc2ccc(-c3noc(C(F)(F)F)n3)s2)c2cnccn2)c1` [Example AG, N-(4-Fluoropyridin-2-yl)-N-({5-[5-(trifluoromethyl)-1,2,4-oxadiazol-3-yl]thiophen-2-yl}methyl)pyrazin-2-amine], for which the concentration for half-maximal inhibition (IC50) on Human HDAC2 and on Human HDAC10 was greater than 10000 nM throughout.

`FC(F)(F)c1nc(-c2ccc(CN(c3cnccn3)c3ncccn3)s2)no1` [Example AS, N-(Pyrimidin-2-yl)-N-({5-[5-(trifluoromethyl)-1,2,4-oxadiazol-3-yl]thiophen-2-yl}methyl)pyrazin-2-amine]: the IC50 on Human HDAC2 and at Human HDAC10 was greater than 10000 nM each time.

Regarding `Cc1nccnc1N(Cc1ccc(-c2noc(C(F)(F)F)n2)s1)c1cnccn1` [Example BE, 3-Methyl-N-(pyrazin-2-yl)-N-({5-[5-(trifluoromethyl)-1,2,4-oxadiazol-3-yl]thiophen-2-yl}methyl)pyrazin-2-amine], the IC50 at Human HDAC2 and on Human HDAC10 was greater than 10000 nM each time.

Turning to `COc1nccnc1N(Cc1ccc(-c2noc(C(F)(F)F)n2)s1)c1cnccn1` [Example BF, 3-Methoxy-N-(pyrazin-2-yl)-N-({5-[5-(trifluoromethyl)-1,2,4-oxadiazol-3-yl]thiophen-2-yl}methyl)pyrazin-2-amine], the IC50 at Human HDAC2 and at Human HDAC10 was greater than 10000 nM throughout.

With `COc1cnc(N(Cc2ccc(-c3noc(C(F)(F)F)n3)s2)c2cnccn2)cn1` [Example BI, 5-Methoxy-N-(pyrazin-2-yl)-N-({5-[5-(trifluoromethyl)-1,2,4-oxadiazol-3-yl]thiophen-2-yl}methyl)pyrazin-2-amine], the IC50 on Human HDAC2 and at Human HDAC10 was greater than 10000 nM throughout.

Consider `FC(F)(F)c1cnc(N(Cc2ccc(-c3noc(C(F)(F)F)n3)s2)c2cnccn2)cn1` [Example BK, N-(Pyrazin-2-yl)-5-(trifluoromethyl)-N-({5-[5-(trifluoromethyl)-1,2,4-oxadiazol-3-yl]thiophen-2-yl}methyl)pyrazin-2-amine], for which the half-maximal inhibitory concentration (IC50) on Human HDAC2 and at Human HDAC10 was greater than 10000 nM each time.

With `FC(F)(F)c1nc(-c2ccc(CN(c3cnccn3)c3cnc(N4CCOCC4)cn3)s2)no1` [Example BM, 5-(Morpholin-4-yl)-N-(pyrazin-2-yl)-N-({5-[5-(trifluoromethyl)-1,2,4-oxadiazol-3-yl]thiophen-2-yl}methyl)pyrazin-2-amine], the IC50 at Human HDAC2 and on Human HDAC10 was greater than 10000 nM each time.

Turning to `Cc1cncc(N(Cc2ccc(-c3noc(C(F)(F)F)n3)s2)c2cnccn2)n1` [Example BP, 6-Methyl-N-(pyrazin-2-yl)-N-({5-[5-(trifluoromethyl)-1,2,4-oxadiazol-3-yl]thiophen-2-yl}methyl)pyrazin-2-amine], the IC50 at Human HDAC2 and at Human HDAC10 was greater than 10000 nM throughout.

Turning to `COc1cncc(N(Cc2ccc(-c3noc(C(F)(F)F)n3)s2)c2cnccn2)n1` [Example BQ, 6-Methoxy-N-(pyrazin-2-yl)-N-({5-[5-(trifluoromethyl)-1,2,4-oxadiazol-3-yl]thiophen-2-yl}methyl)pyrazin-2-amine], the concentration for half-maximal inhibition (IC50) on Human HDAC2 and on Human HDAC10 was greater than 10000 nM throughout.

As to `FC(F)(F)c1cncc(N(Cc2ccc(-c3noc(C(F)(F)F)n3)s2)c2cnccn2)n1` [Example BR, N-(Pyrazin-2-yl)-6-(trifluoromethyl)-N-({5-[5-(trifluoromethyl)-1,2,4-oxadiazol-3-yl]thiophen-2-yl}methyl)pyrazin-2-amine], the IC50 on Human HDAC2 and on Human HDAC10 was greater than 10000 nM in each case.

In the case of `O=C(O)c1ccc(N(Cc2sc(-c3noc(C(F)(F)F)n3)cc2F)c2cnccn2)nn1` [Example EZ, 6-[({3-Fluoro-5-[5-(trifluoromethyl)-1,2,4-oxadiazol-3-yl]thiophen-2-yl}methyl)(pyrazin-2-yl)amino]pyridazine-3-carboxylic acid], the IC50 at Human HDAC2 and on Human HDAC10 was greater than 10000 nM throughout.

The values are drawn from patent US20210038607A1, “OXADIAZOLYLTHIOPHENE DERIVATIVES USEFUL AS HISTONE DEACETYLASE INHIBITORS” (Karus Therapeutics Limited, priority 2018, published 2021).
